The source of these data is US8937091B2 (Japan Science and Technology Agency, priority 2009, dated 2015).

As usually defined, the inhibition is the drop in the measured response relative to a control, in per cent.

Read-outs that look alike come from different tables or passages of the source.

In one experiment the target is TGase (Cavia porcellus, UniProt P08587). The class given is biochemical. The note with it: for TG level: level with DMSO control designated as 100. The protocol:
An enzyme reaction solution (0.1 ml) (100 mM HEPES-NaOH, pH 7.5, 1 mM CaCl2, 20 μM monodansyl cadaverine, 0.05 mg/ml N,N-dimethylcasein, 5 μg/ml TGase) was introduced into wells of a 96-well plate (Nunc, 96 Well Black Plate with Clear Bottom). A test compound was added in concentrations of 0.3, 1.0, 3.0, 10, and 30 μM. The solution and the compound were sufficiently mixed while preventing foaming. The plate was set in the fluorescence drug screening system FDSS 3000 (Hamamatsu Photonics K.K.). TGase-inhibiting activity of the compound was calculated by assaying changes in fluorescence wavelength (at 340 nm) per unit time. […] The assay level at which TGase activity decreased by half in the presence of the test compound was designated as TG 50.
Hereafter, the numerals in parentheses written after the TG level, the SOCE level, and the IICR level correspond to the test compound concentrations. The number following the name of each title compound used in the Examples below represents a compound ID number designated arbitrarily by the present inventors.

Experiment [1] concerns IICR (IP3 induced calcium release) in CHO cells. The experiment is described as follows: Assay of IICR (IP3 induced calcium release)-inhibiting action. The conditions noted are these: for inhibition at 10 µM / inhibition at 30 µM / inhibition at 100 µM: Cricetulus griseus, CHO, read-out: IICR level (percentage of inhibition); for inhibition at 10 µM / inhibition at 30 µM / inhibition at 100 µM / IICR level (percentage of inhibition): CHO cells, 10 μM ATP. The class given is cell-based, Chinese hamster. A digest of the protocol:
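CHO cell medium replaced with calcium-containing BSS; compound added 1 min later, then 10 μM ATP after a further 2 min. Percent inhibition of the ATP-evoked rise in intracellular calcium determined at each compound concentration.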

Experiment [2] concerns SOCE (store operated calcium entry) in CHO cells. The experiment is described as follows: Assay of SOCE (store operated calcium entry)-inhibiting action. The class given is cell-based, Chinese hamster. The note with it: CHO cells, thapsigargin; for inhibition at 10 µM / inhibition at 30 µM / inhibition at 100 µM: Cricetulus griseus, CHO, read-out: SOCE level (percentage of inhibition). The gist of the method: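 CHO cells in calcium-free BSS received compound, then 1 μM thapsigargin 2 min later to deplete stores; after 9 min, 2 mM calcium chloride (final) added. Percent inhibition of the rise in intracellular calcium determined at various compound concentrations.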

Consider `CC(C)(C)N(CCC(=O)c1cc2ccccc2s1)Cc1ccccc1` [Example 8761, 2-(N-t-butylbenzyl)aminoethyl-2-benzothienylketone], for which the “TG-activity-inhibiting action or protein-crosslinking-inhibiting action (in words)” value at TGase is “strongly”. The “IICR-inhibiting activity compared with SOCE-inhibiting activity (in words)” value in experiment [1] is “higher than SOCE-inhibiting activity”.

For `C=CC(=O)c1cccc2ccccc12` [Example 8293, 1-acryloylnaphthalene], the “TG-activity-inhibiting action or protein-crosslinking-inhibiting action (in words)” value at TGase is recorded as “high”.

As for `CC(C)N(CCC(=O)c1ccccn1)Cc1ccccc1` [Example 8305, 2-(N-isopropylbenzyl)aminoethyl-2-pyridylketone], the “TG-activity-inhibiting action or protein-crosslinking-inhibiting action (in words)” value at TGase is listed as “strongly”. Besides, the “IICR-inhibiting activity compared with SOCE-inhibiting activity (in words)” value in experiment [1] is “higher than SOCE-inhibiting activity”.

With `CC(C)N(CCC(=O)c1cc(Cl)sc1Cl)Cc1ccccc1` [Example 8659, 2-(N-isopropylbenzyl)aminomethyl-3-(2,5-dichlorothiophenyl)ketone], the “TG-activity-inhibiting action or protein-crosslinking-inhibiting action (in words)” value at TGase is “strongly”. Moreover, in experiment [1], the “IICR-inhibiting activity compared with SOCE-inhibiting activity (in words)” value is “higher than SOCE-inhibiting activity”.

As for `CCc1nccnc1C(=O)CCN(Cc1ccccc1)C(C)(C)C` [Example 8658, 2-(N-t-butylbenzyl)aminoethyl-2-(3-ethyl)-pyrazylketone], the “TG-activity-inhibiting action or protein-crosslinking-inhibiting action (in words)” value at TGase is “strongly”. In addition, the “IICR-inhibiting activity compared with SOCE-inhibiting activity (in words)” value in experiment [1] is given as “higher than SOCE-inhibiting activity”.

For `Cc1ccc(C(=O)CCN(Cc2ccccc2)C(C)(C)C)s1` [Example 8818, 2-(N-benzyl-t-butyl)aminoethyl-5-methyl-2-thienylketone], the “TG-activity-inhibiting action or protein-crosslinking-inhibiting action (in words)” value at TGase is reported as “strongly”. The “IICR-inhibiting activity compared with SOCE-inhibiting activity (in words)” value in experiment [1] is listed as “higher than SOCE-inhibiting activity”.

Consider `CCCCN(CCO)CCC(=O)c1ccc(Br)s1` [Example 8769, 2-(N-2-hydroxyethylbutyl)aminoethyl-5-bromo-2-thienylketone], for which the “TG-activity-inhibiting action or protein-crosslinking-inhibiting action (in words)” value at TGase is “strongly”. In addition, the “IICR-inhibiting activity compared with SOCE-inhibiting activity (in words)” value in experiment [1] is recorded as “higher than SOCE-inhibiting activity”.

Consider `C=CC(=O)c1ccccc1` [Example 8184, acryloylbenzene], for which the “TG-activity-inhibiting action or protein-crosslinking-inhibiting action (in words)” value at TGase is listed as “high”.

Take `O=C(CCN(CCO)Cc1ccccc1)c1nccs1` [Example 8766, 2-(N-2-hydroxyethylbenzyl)aminoethyl-2-thiazolylketone]: the “TG-activity-inhibiting action or protein-crosslinking-inhibiting action (in words)” value at TGase is given as “strongly”. Also, the “IICR-inhibiting activity compared with SOCE-inhibiting activity (in words)” value in experiment [1] is recorded as “higher than SOCE-inhibiting activity”.

Regarding `C=CC(=O)c1cc2c(cc1Br)OCO2` [Example 8200, 2-bromo-4,5-dioxymethylene-1-acryloylbenzene], on TGase, the “TG-activity-inhibiting action or protein-crosslinking-inhibiting action (in words)” value is “high”.

For the compound Methyl vinylketone [Example 57], the TG level on TGase (test compound 3 μmol) was found to be 84; on TGase (test compound 10 μmol), 94; on TGase (test compound 30 μmol) it was 37.

Consider `C=CC(=O)c1ccc2c(C)cccc2c1` [Example 8211, 1-methyl-6-acryloylnaphthalene], for which the “TG-activity-inhibiting action or protein-crosslinking-inhibiting action (in words)” value at TGase is recorded as “high”.

On to `C=CC(=O)c1ccc2c(F)cccc2c1` [Example 8257, 1-fluoro-6-acryloylnaphthalene], for which the “TG-activity-inhibiting action or protein-crosslinking-inhibiting action (in words)” value at TGase was “high”.

For `C=CC(=O)c1ccc2ccccc2c1` [Example 8213, 2-acryloylnaphthalene], the “TG-activity-inhibiting action or protein-crosslinking-inhibiting action (in words)” value at TGase is given as “high”.

Take `C=CC(=O)C(c1ccccc1)c1ccccc1` [Example 8269, Acryloyldiphenylmethane]: at TGase, the “TG-activity-inhibiting action or protein-crosslinking-inhibiting action (in words)” value was “high”.

For `C=CC(=O)c1ccc(F)cc1` [Example 8186, 4-fluoro-1-acryloylbenzene], the “TG-activity-inhibiting action or protein-crosslinking-inhibiting action (in words)” value on TGase was “high”.

Regarding `C=CC(=O)c1ccc(C)cc1` [Example 8185, 4-methyl-1-acryloylbenzene], at TGase, the “TG-activity-inhibiting action or protein-crosslinking-inhibiting action (in words)” value is “high”.

Turning to `C=CC(=O)c1ccc(Br)cc1` [Example 8266, 1-acryloyl-4-bromobenzene], the “TG-activity-inhibiting action or protein-crosslinking-inhibiting action (in words)” value on TGase is listed as “high”.

In the case of `CC(C)(C)N(CCO)CCC(=O)c1cnccn1` [Example 214, 2-(N-2-hydroxyethyl-t-butyl)aminoethyl-2-pyrazylketone], the inhibition at 10 µM in experiment [2] (test compound 10 μmol) was found to be 10%; in experiment [1] (test compound 10 μmol) it was 0%. The inhibition at 30 µM in experiment [2] (test compound 30 μmol) and in experiment [1] (test compound 30 μmol) was 0% in each case. In addition, the inhibition at 100 µM in experiment [2] (test compound 100 μmol) and in experiment [1] (test compound 100 μmol) was 0% throughout.

As to `O=C(CCN(CCO)CCO)n1nnc2ccccc21` [Example 296, 2-bis(N-2-hydroxyethyl)aminoethyl-1-benzotriazoketone], the inhibition at 10 µM in experiment [2] (test compound 10 μmol) and in experiment [1] (test compound 10 μmol) was 0% in each case. Moreover, the results for the inhibition at 30 µM in experiment [2] (test compound 30 μmol) and in experiment [1] (test compound 30 μmol) were 0% and 50%, respectively. The results for the inhibition at 100 µM in experiment [2] (test compound 100 μmol) and in experiment [1] (test compound 100 μmol) were 20% and 60%, respectively.

`CCN(CCC(=O)c1ccc(F)cc1)Cc1ccccc1` [Example 313, 2-(N-benzylethyl)aminoethyl-4-fluoro-phenylketone]: the figures for the inhibition at 10 µM in experiment [2] (test compound 10 μmol) and in experiment [1] (test compound 10 μmol) were 0% and 20%, respectively. Further, the results for the inhibition at 30 µM in experiment [2] (test compound 30 μmol) and in experiment [1] (test compound 30 μmol) were 0% and 20%, respectively. The inhibition at 100 µM in experiment [2] (test compound 100 μmol) and in experiment [1] (test compound 100 μmol) was 30% throughout.

On to `CN(CCC(=O)c1ccc2ccccc2c1)Cc1ccccc1` [Example 99, 2-(N-methylbenzyl)aminoethyl-2-naphthylketone], for which the “SOCE level (percentage of inhibition)” value in experiment [2] (test compound 10 μmol) stood at 0%; in experiment [2] (test compound 30 μmol) it was 0%; in experiment [2] (test compound 100 μmol) it was 30%. In addition, the “IICR level (percentage of inhibition)” value in experiment [1] (test compound 10 μmol) worked out at 0%; in experiment [1] (test compound 30 μmol), 20%; in experiment [1] (test compound 100 μmol), 60%.

On to `CN(CCO)CCC(=O)c1ccccn1` [Example 251, 2-(N-methyl-2-hydroxyethyl)aminoethyl-2-pyridylketone], for which the inhibition at 10 µM in experiment [2] (test compound 10 μmol) and in experiment [1] (test compound 10 μmol) was 0% throughout. The inhibition at 30 µM in experiment [2] (test compound 30 μmol) and in experiment [1] (test compound 30 μmol) was 0% in each case. Further, the inhibition at 100 µM in experiment [2] (test compound 100 μmol) and in experiment [1] (test compound 100 μmol) was 0% each time.

`O=C(CCNc1ccccc1O)c1ccc(Br)s1` [Example 336, 2-(N-hydroxyphenyl)aminoethyl-5-bromo-2-thienylketone]: the values for the inhibition at 10 µM in experiment [2] (test compound 10 μmol) and in experiment [1] (test compound 10 μmol) were 10% and 20%, respectively. The figures for the inhibition at 30 µM in experiment [2] (test compound 30 μmol) and in experiment [1] (test compound 30 μmol) were 0% and 10%, respectively. The inhibition at 100 µM in experiment [2] (test compound 100 μmol) was 0%; in experiment [1] (test compound 100 μmol), 60%.

Turning to `CCCCN(CCO)CCC(=O)c1cccs1` [Example 247, 2-(N-butyl-2-hydroxyethyl)aminoethyl-2-thiophenylketone], the inhibition at 10 µM came to 0% in experiment [2] (test compound 10 μmol) and 10% in experiment [1] (test compound 10 μmol). Further, the inhibition at 30 µM in experiment [2] (test compound 30 μmol) and in experiment [1] (test compound 30 μmol) was 0% each time. Moreover, the inhibition at 100 µM in experiment [2] (test compound 100 μmol) and in experiment [1] (test compound 100 μmol) was 0% throughout.

Consider `COC(=O)C(CSSCC(NCCC(=O)c1ccc(C)s1)C(=O)OC)NCCC(=O)c1ccc(C)s1` (stereo not drawn) [Example 403, N,N-bis(2-(5-methyl-2-thiophenoyl)ethyl)cystinemethylester], for which the inhibition at 10 µM in experiment [2] (test compound 10 μmol) was found to be 20%; in experiment [1] (test compound 10 μmol), 57%. In addition, the inhibition at 30 µM is 40% in experiment [2] (test compound 30 μmol) and 17% in experiment [1] (test compound 30 μmol). Besides, the results for the inhibition at 100 µM in experiment [2] (test compound 100 μmol) and in experiment [1] (test compound 100 μmol) were 50% and 83%, respectively.

In the case of `CC(C)(C)N(CCC(=O)c1cnccn1)Cc1ccccc1` [Example 213, 2-(N-2-benzyl-t-butyl)aminoethyl-2-pyrazylketone], the results for the inhibition at 10 µM in experiment [2] (test compound 10 μmol) and in experiment [1] (test compound 10 μmol) were 0% and 20%, respectively. Moreover, the inhibition at 30 µM in experiment [2] (test compound 30 μmol) was 0%; in experiment [1] (test compound 30 μmol), 80%. For the same compound, the inhibition at 100 µM in experiment [2] (test compound 100 μmol) was 10%; in experiment [1] (test compound 100 μmol) it was 90%.
